From US20110086889A1, “TETRAZOLE COMPOUNDS AS OREXIN RECEPTOR ANTAGONISTS” (priority 2009, published 2011)

Legend:
[1] = cited from earlier work
[2] = rat model; cited from earlier work
[3] = rat; cited from earlier work
human orexin-2 receptor = molecular target: T1, human orexin-2 receptor (Homo sapiens, UniProt O43614); experiment: FLIPR calcium assay, orexin receptor antagonistic activity, CHO cells expressing the human orexin-2 receptor; type: cell-based; conditions: 3 nM orexin-A as agonist, some values geometric mean of n = 2 or 3, read-out: OX2 IC50
T1 construct: expressed in transfected cells; host or cells: Chinese hamster ovary (CHO) cells, grown under G418 selection
T1 sequence (O43614 1-444): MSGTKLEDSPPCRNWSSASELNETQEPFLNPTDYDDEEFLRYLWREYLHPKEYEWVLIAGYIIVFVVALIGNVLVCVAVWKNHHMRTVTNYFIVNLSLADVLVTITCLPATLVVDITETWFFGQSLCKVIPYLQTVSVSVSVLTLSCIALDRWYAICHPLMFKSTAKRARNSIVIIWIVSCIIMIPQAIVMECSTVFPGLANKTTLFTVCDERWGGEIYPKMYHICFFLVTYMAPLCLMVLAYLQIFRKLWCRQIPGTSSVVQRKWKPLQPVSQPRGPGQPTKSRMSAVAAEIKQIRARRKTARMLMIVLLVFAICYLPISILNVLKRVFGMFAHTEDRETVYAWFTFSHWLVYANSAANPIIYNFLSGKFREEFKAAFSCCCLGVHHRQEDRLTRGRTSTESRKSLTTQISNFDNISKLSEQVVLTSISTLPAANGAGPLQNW
Experimental: (§1) The orexin receptor antagonistic activity of the compounds of formula (I) is determined in accordance with the following experimental method.
(§2) Chinese hamster ovary (CHO) cells expressing the human orexin-1 receptor and the human orexin-2 receptor, respectively, are grown in culture medium (Ham F-12 with L-Glutamine) containing 300 μg/ml G418, 100 U/ml penicillin, 100 μg/ml streptomycin and 10% heat inactivated fetal calf serum (FCS). The cells are seeded at 20,000 cells/well into 384-well black clear bottom sterile plates (Greiner). The seeded plates are incubated overnight at 37° C. in 5% CO2. Human orexin-A as an agonist is prepared as 1 mM stock solution in MeOH:water (1:1), diluted in HBSS containing 0.1% bovine serum albumin (BSA), NaHCO3: 0.375 g/l and 20 mM HEPES for use in the assay at a final concentration of 3 nM.
(§3) Antagonists are prepared as 10 mM stock solution in DMSO, then diluted in 384-well plates using DMSO followed by a transfer of the dilutions into in HBSS containing 0.1% bovine serum albumin (BSA), NaHCO3: 0.375 g/l and 20 mM HEPES. On the day of the assay, 50 μl of staining buffer (HBSS containing 1% FCS, 20 mM HEPES, NaHCO3: 0.375 g/l, 5 mM probenecid (Sigma) and 3 μM of the fluorescent calcium indicator fluo-4 AM (1 mM stock solution in DMSO, containing 10% pluronic) is added to each well. The 384-well cell-plates are incubated for 50 min at 37° C. in 5% CO2 followed by equilibration at r.t. for 30-120 min before measurement.
(§4) Within the Fluorescent Imaging Plate Reader (FLIPR Tetra, Molecular Devices), antagonists are added to the plate in a volume of 10 μl/well, incubated for 10 min and finally 10 μl/well of agonist is added. Fluorescence is measured for each well at 1 second intervals, and the height of each fluorescence peak is compared to the height of the fluorescence peak induced by 3 nM orexin-A with vehicle in place of antagonist. For each antagonist, the IC50 value (the concentration of compound needed to inhibit 50% of the agonistic response) is determined and may be normalized using the obtained IC50 value of a on-plate reference compound. Optimized conditions were achieved by adjustment of pipetting speed and cell splitting regime. The calculated IC50 values of the compounds may fluctuate depending on the daily cellular assay performance. Fluctuations of this kind are known to those skilled in the art.

human orexin-1 receptor = molecular target: T2, human orexin-1 receptor (Homo sapiens, UniProt O43613); experiment: FLIPR calcium assay, orexin receptor antagonistic activity, CHO cells expressing the human orexin-1 receptor; type: cell-based; conditions: 3 nM orexin-A as agonist, some values geometric mean of n = 2 or 3, read-out: OX1 IC50
T2 construct: expressed in transfected cells; host or cells: Chinese hamster ovary (CHO) cells, grown under G418 selection
T2 sequence (O43613 1-425): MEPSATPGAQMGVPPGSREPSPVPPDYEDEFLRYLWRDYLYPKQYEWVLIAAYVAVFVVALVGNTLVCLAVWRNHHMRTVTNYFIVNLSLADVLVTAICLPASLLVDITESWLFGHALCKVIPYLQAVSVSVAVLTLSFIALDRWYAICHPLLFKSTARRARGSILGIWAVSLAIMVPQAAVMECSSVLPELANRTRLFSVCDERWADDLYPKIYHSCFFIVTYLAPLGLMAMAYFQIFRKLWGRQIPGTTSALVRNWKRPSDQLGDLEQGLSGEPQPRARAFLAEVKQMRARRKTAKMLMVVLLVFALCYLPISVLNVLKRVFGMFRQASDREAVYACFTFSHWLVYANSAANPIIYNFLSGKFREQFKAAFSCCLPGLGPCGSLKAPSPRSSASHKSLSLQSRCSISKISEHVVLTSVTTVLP
Experimental: as §1, §2, §3, §4

Compound	IC50 (human orexin-2 receptor) [µM]	IC50 (human orexin-1 receptor) [µM]	activity in a rat model of post-traumatic stress disorder [1]	memory function [2]	alertness, characterized by active wake and locomotion [3]	time spent in both REM and NREM sleep [3]
CNC(=O)[C@@H](c1ccccc1)N1CCc2cc(OC)c(OC)cc2[C@@H]1CCc1ccc(C(F)(F)F)cc1 [(2R)-2-{(1S)-6,7-dimethoxy-1-[2-(4-trifluoromethyl-phenyl)-ethyl]-3,4-dihydro-1H-isoquinolin-2-yl}-N-methyl-2-phenyl-acetamide]	–	–	active	enhance memory function	decrease alertness	dose-dependently increase
COc1ccc(Cn2nccc2NC(=O)CSc2nnnn2-c2cccc(C)c2C)cc1OC [Example 10, N-[2-(3,4-Dimethoxy-benzyl)-2H-pyrazol-3-yl]-2-[1-(2,3-dimethyl-phenyl)-1H-tetrazol-5-ylsulfanyl]-acetamide]	0.089	0.061	–	–	–	–
COc1ccc(-n2nnnc2SCC(=O)Nc2ccnn2Cc2ccc3c(c2)OCO3)c(OC)c1 [Example 62, N-(2-Benzo[1,3]dioxol-5-ylmethyl-2H-pyrazol-3-yl)-2-[1-(2,4-dimethoxy-phenyl)-1H-tetrazol-5-ylsulfanyl]-acetamide]	1.8	3.44	–	–	–	–
Cc1cccc(-n2nnnc2SCC(=O)Nc2ccnn2CC2CC2)c1C [Example 76, N-(2-Cyclopropylmethyl-2H-pyrazol-3-yl)-2-[1-(2,3-dimethyl-phenyl)-1H-tetrazol-5-ylsulfanyl]-acetamide]	0.165	0.363	–	–	–	–
CCC(C)Cn1nccc1NC(=O)CSc1nnnn1-c1cccc(C)c1C (stereo not drawn) [Example 77, 2-[1-(2,3-Dimethyl-phenyl)-1H-tetrazol-5-ylsulfanyl]-N-[2-(2-methyl-butyl)-2H-pyrazol-3-yl]-acetamide]	0.613	0.295	–	–	–	–
Cc1cccc(-n2nnnc2SCC(=O)Nc2ccnn2CCCc2ccc(OC(F)(F)F)c(F)c2)c1C [Example 85, 2-[1-(2,3-Dimethyl-phenyl)-1H-tetrazol-5-ylsulfanyl]-N-{2-[3-(3-fluoro-4-trifluoromethoxy-phenyl)-propyl]-2H-pyrazol-3-yl}-acetamide]	0.146	1.81	–	–	–	–
COc1ccc(-n2nccc2NC(=O)CSc2nnnn2-c2cccc(C)c2C)cn1 [Example 147, 2-[1-(2,3-Dimethyl-phenyl)-1H-tetrazol-5-ylsulfanyl]-N-[2-(6-methoxy-pyridin-3-yl)-2H-pyrazol-3-yl]-acetamide]	8.3	0.047	–	–	–	–
Cc1cc(NC(=O)CSc2nnnn2-c2cccc(C)c2C)n(-c2ccccc2)n1 [Example 154, 2-[1-(2,3-Dimethyl-phenyl)-1H-tetrazol-5-ylsulfanyl]-N-(5-methyl-2-phenyl-2H-pyrazol-3-yl)-acetamide]	0.654	7.25	–	–	–	–

More lines, main results first:

IC50 (human orexin-2 receptor) [µM]	IC50 (human orexin-1 receptor) [µM]	Compound	activity in a rat model of post-traumatic stress disorder [1]	memory function [2]	alertness, characterized by active wake and locomotion [3]	time spent in both REM and NREM sleep [3]
0.005	0.032	COc1ccc(Cn2nccc2NC(=O)CSc2nnnn2-c2cccc(C)c2C)cc1 [Example 1, 2-[1-(2,3-Dimethyl-phenyl)-1H-tetrazol-5-ylsulfanyl]-N-[2-(4-methoxy-benzyl)-2H-pyrazol-3-yl]-acetamide]	–	–	–	–
0.025	0.042	COc1ccc(Cn2nccc2NC(=O)CSc2nnnn2-c2cccc(C)c2C)cc1C [Example 2, 2-[1-(2,3-Dimethyl-phenyl)-1H-tetrazol-5-ylsulfanyl]-N-[2-(4-methoxy-3-methyl-benzyl)-2H-pyrazol-3-yl]-acetamide]	–	–	–	–
0.115	0.048	Cc1ccccc1Cn1nccc1NC(=O)CSc1nnnn1-c1cccc(C)c1C [Example 22, 2-[1-(2,3-Dimethyl-phenyl)-1H-tetrazol-5-ylsulfanyl]-N-[2-(2-methyl-benzyl)-2H-pyrazol-3-yl]-acetamide]	–	–	–	–
0.006	0.011	COc1ccc(Cn2nccc2NC(=O)CSc2nnnn2-c2cc(C)ccc2C)cc1 [Example 46, 2-[1-(2,5-Dimethyl-phenyl)-1H-tetrazol-5-ylsulfanyl]-N-[2-(4-methoxy-benzyl)-2H-pyrazol-3-yl]-acetamide]	–	–	–	–
0.047	0.044	Cc1ccc(C)c(-n2nnnc2SCC(=O)Nc2ccnn2CCc2ccccc2)c1 [Example 89, 2-[1-(2,5-Dimethyl-phenyl)-1H-tetrazol-5-ylsulfanyl]-N-(2-phenethyl-2H-pyrazol-3-yl)-acetamide]	–	–	–	–
0.041	0.025	COc1ccc(Cn2nccc2NC(=O)CCc2nnnn2-c2cccc3ccccc23)cc1 [Example 115, N-[2-(4-Methoxy-benzyl)-2H-pyrazol-3-yl]-3-(1-naphthalen-1-yl-1H-tetrazol-5-yl)-propionamide]	–	–	–	–
0.53	0.796	COc1ccc(-n2nccc2NC(=O)CCc2nnnn2-c2c(C)cc(C)cc2C)cc1 [Example 139, N-[2-(4-Methoxy-phenyl)-2H-pyrazol-3-yl]-3-[1-(2,4,6-trimethyl-phenyl)-1H-tetrazol-5-yl]-propionamide]	–	–	–	–
0.019	0.085	Cc1cccc(-n2nnnc2SCC(=O)Nc2ccnn2-c2ccc(Oc3ccccc3)cc2)c1C [Example 141, 2-[1-(2,3-Dimethyl-phenyl)-1H-tetrazol-5-ylsulfanyl]-N-[2-(4-phenoxy-phenyl)-2H-pyrazol-3-yl]-acetamide]	–	–	–	–
0.032	0.063	COc1ccc(-n2nccc2NC(=O)CSc2nnnn2-c2c(Cl)cccc2Cl)cc1 [Example 152, 2-[1-(2,6-Dichloro-phenyl)-1H-tetrazol-5-ylsulfanyl]-N-[2-(4-methoxy-phenyl)-2H-pyrazol-3-yl]-acetamide]	–	–	–	–
